# According to patent US12138301B2, “Compounds including a mutant KRAS sequence and a lipid and uses thereof” (Elicio Therapeutics, Inc., priority 2018, dated 2024):
# Entries after “also recorded” stand apart in the source; their conditions may differ.
# Columns and labels:
# PBMCs/Splenocytes = test: ICS for IFNγ on PBMCs and ELISpot for IFNγ on splenocytes of immunized HLA-A2.1 transgenic mice (Example 3); format: in vivo, B6 HLA-A2.1 Tg mice; settings: peptide 20 μg s.c., two boosters at two-week intervals, HLA-A2.1 Tg mice
# Excerpt: B6 mice transgenic for the human HLA gene, A2.1, were immunized either with the soluble or amphiphile-conjugated forms of the KRas G12D antigen, as well as adjuvant (CpG or aCpG). The A2.1 allele is known to mount responses to the KRas peptides in humans.
# The experimental design included the following 4 groups of B6 HLA-A2.1 Tg mice immunized with the listed compounds (n=5 for each group): • 1. KRas wild-type+CpG • 2. KRas 12D+CpG • 3. aKRas 12D+aCpG • 4. No immunization
# (§1) The adjuvant as well as peptide stock solutions were dissolved in H2O. Final injections were diluted with 1×PBS.
# The aKRas peptides used were 18mer sequences of mutant sequences with a G12D substitution (amino acids 4-21 of wild-type 4 […] (SEQ ID NO:9)). 20 μg in 100 μl were used for each injection.
# (§2) The aCpG sequence used was the CpG1826 sequence (5′-[…]-3′; SEQ ID NO:10) with two guanines added at the 5′ end (5′-gg […]-3′; SEQ ID NO:11) at a concentration of 5 nmol for each 100 μl injection.
# The vaccine was administered subcutaneously to female mice bilaterally at the tail base at 50 μl per side. Two booster doses were given in two-week intervals.
# Intracellular cytokine staining (ICS) analysis for IFNγ on peripheral blood mononuclear cells (PBMCs) and ELISpot analysis for IFNγ on splenocytes was performed, using standard protocols, 7 days after the second and third booster dose, respectively.
# PBMCs/Splenocytes (10^6 cells/well and 2×10^6 cells/well) were activated with 5 μg/well of either SEQ ID NO:1 or one of SEQ ID NOS:12-20 as shown below:
# Specific mutant peptides are given only to the mice that were immunized with the corresponding 18mer.
# splenocytes [1] = test: ELISpot analysis for IFNγ on splenocytes of immunized mice (Example 1, KRas G12D); format: in vivo, C57BL/6 mice; settings: splenocytes activated with G12D 18mer 5 μg/well
# Procedure: The efficacy of soluble-KRas (KRas) or amphiphile-KRas (aKRas) (FIG. 6) mutant sequences and an amphiphile-CpG adjuvant (aCpG) to elicit an immune response was determined.
# The experimental design included the following 4 groups of C57BL16 mice immunized with the listed compounds (n=5 for each group): • 1. KRas G12D+aCpG • 2. aKRas G12D+aCpG • 3. KRas G12D+pIC • 4. No immunization
# PolyIC (pIC) was used as a benchmark adjuvant control.
# The adjuvant, as well as peptide stock, solutions were dissolved in H2O. Final injections were diluted with 1×PBS (phosphate buffered saline).
# The aKRas peptides used were 18mer sequences of mutant sequences with a G12D substitution (amino acids 4-21 of wild-type→YKLVVVGAGGVGKSALTI (SEQ ID NO:9)). 20 μg in 100 μl were used for each injection.
# The aCpG sequence used was the CpG1826 sequence (5′-[…]-3′; SEQ ID NO:10) with two guanines added at the 5′ end (5′-gg […]-3′; SEQ ID NO:11) at a concentration of 5 nmol for each 100 μl injection. CpG1826 is an optimal mouse sequence while CpG7909 is optimal for humans and poorly active in mice. CpG1826 and CpG7909 are in the same CpG class (class B) and generally have similar activity profiles in their respective species.
# 50 μg of pIC were used for each 100 μl injection.
# Primer immunizations were given subcutaneously (s.c.) into the tail base (day 0) with one booster dose after 2 weeks (day 14). ELISpot analysis for IFNγ on splenocytes was performed, using standard protocols, […] after booster dose administration (day 21). Splenocytes (10^6 cells/well) were activated with 5 μg/well of G12D sequence 18mer (aa4-21)→YKLVVVGADGVGKSALTI (SEQ ID NO:1).
# splenocytes [2] = test: ELISpot analysis for IFNγ on splenocytes, higher antigen concentration and bi-weekly or weekly dosing (Example 4); format: in vivo, C57BL/6 mice; settings: peptide 50 μg s.c.; for KRas-specific CD8+ T-cell response (9mers): restimulation with 9mers; for CD8+ or CD4+ T-cell response (18mer): restimulation with 18mer
# Procedure: The concentration of antigen was increased from 20 μg to 50 μg and bi-weekly (bw) or weekly (w) dose intervals were tested.
# The experimental design included the following 5 groups of C57BL/6 mice immunized with the listed compounds (n=5 for each group): • 1. KRas 12D+CpG1826 (bw) • 2. KRas 12D+CpG1826 (w) • 3. aKRas 12D+aCpG1826 (bw) • 4. aKRas 12D+aCpG1826 (w) • 5. No immunization
# as §1
# 50 μg in 100 μl were used for each injection.
# as §2
# Primer immunizations were given subcutaneously (s.c.) into the tail base with one booster dose after 2 weeks.
# ELISpot analysis for IFNγ, and CBA (cytometric bead array) analysis for IL6, I-10, IL12, TNFα, IFNγ, and MCP1 was performed on splenocytes, using standard protocols, 7 days after booster dose administration.
# Specific mutant peptides were given only to the mice that were immunized with the corresponding 18mer.
# Separate plates were prepared for either short (9mer and 10mer) or long (17mer and 18mer) peptide stimulations. Cells from “No immunization” control mice were stimulated with all stimuli.
# [3] = system: KRAS-specific splenic T-cells; test: Summary of mouse immunogenicity studies: KRAS-specific splenic T-cells by ELISPOT and cytokine bead array (Example 5); format: in vivo, C57BL/6 mouse; settings: subcutaneous administration; identified by ELISPOT and cytokine bead array
# splenocytes [4] = test: ELISpot analysis for IFNγ on splenocytes of immunized mice (Example 2, KRas G12R and G12V); format: in vivo, C57BL/6 mice; settings: in combination with aCpG 5 nmol; peptide 20 μg s.c. day 0 + booster d14; splenocytes activated with G12V or G12R 18mer 5 μg/well
# Procedure: as §2
# [5] = in combination with aCpG 5 nmol, peptide 20 μg s.c. tail base day 0 + booster day 14
# [6] = in combination with aCpG 5 nmol
substance,measurement,setting,value
YKLVVVGAGGVGKSALTI [soluble wild-type KRas],KRas-specific CD8+ T-cell response,PBMCs/Splenocytes; in combination with CpG,not
YKLVVVGADGVGKSALTI [soluble KRas G12D],activation of splenocytes (ELISpot for IFNγ),splenocytes [1]; [5],did not
same,activation of splenocytes (ELISpot for IFNγ),"splenocytes [1]; in combination with pIC 50 μg, peptide 20 μg s.c. day 0 + booster day 14",did not
same,KRas-specific CD8+ T-cell response,PBMCs/Splenocytes; in combination with CpG,not
same,KRas-specific CD8+ T-cell response (9mers),splenocytes [2]; in combination with CpG,not
same,CD8+ or CD4+ T-cell response (18mer),splenocytes [2]; in combination with CpG,not
DSPE-amido-dPEG24-amido-dPEG24-CYKLVVVGADGVGKSALTI [aKRas G12D],activation of splenocytes (ELISpot for IFNγ),splenocytes [1]; [5],activated splenocytes
same,KRas-specific CD8+ T-cell response,PBMCs/Splenocytes; [6],KRas-specific CD8′ T-cell response; also recorded: KRas-specific CD8^+ T-cell response
same,KRas-specific CD8+ T-cell response (9mers),splenocytes [2]; [6],KRas-specific CD8^+ T-cell response
same,CD8+ or CD4+ T-cell response (18mer),splenocytes [2]; [6],CD8′ or CD4*T-cell response; also recorded: CD8^+ or CD4^+ T-cell response
same,inducing KRAS-specific splenic T-cells in mice,[3],effective
YKLVVVGARGVGKSALTI [soluble KRas G12R],activation of splenocytes (ELISpot for IFNγ),splenocytes [4],did not
YKLVVVGAVGVGKSALTI [soluble KRas G12V],activation of splenocytes (ELISpot for IFNγ),splenocytes [4],did not
